Experimental findings from ChEMBL document CHEMBL1150961, “Tenuecyclamides A-D, cyclic hexapeptides from the cyanobacterium Nostoc spongiaeforme var. tenue” (1998) are described below.

In this assay the test system is Paracentrotus lividus. The assay is described as follows: Inhibition of sea urchin egg fertilization by sea urchin sperm assessed as inhibition of divided eggs. The format is functional.
For the compound `Cc1oc2nc1C(=O)NC(C)c1nc(cs1)C(=O)NC(C)c1nc(cs1)C(=O)N[C@H]2C` (stereo partly drawn) [TENUECYCLAMIDE A], the ED100 is 10.8 µM.
In the case of `CSCC[C@@H]1NC(=O)c2csc(n2)CNC(=O)c2nc(oc2C)[C@H](C)NC(=O)c2csc1n2` [TENUECYCLAMIDE C], the ED100 worked out at 9 µM.
As to `Cc1oc2nc1C(=O)NCc1nc(cs1)C(=O)N[C@@H](CC[S+](C)[O-])c1nc(cs1)C(=O)N[C@H]2C` (stereo partly drawn) [TENUECYCLAMIDE D], the ED100 worked out at 19.1 µM.
